Patent publication US8461185B2, “P2X3 receptor antagonists for treatment of pain” (Merck Sharp & Dohme Corp., priority 2007, dated 2013)

Target: T1, human P2X3 (Homo sapiens, UniProt P56373)
T1 construct: expressed in transfected cells
T1 sequence (P56373 1-397): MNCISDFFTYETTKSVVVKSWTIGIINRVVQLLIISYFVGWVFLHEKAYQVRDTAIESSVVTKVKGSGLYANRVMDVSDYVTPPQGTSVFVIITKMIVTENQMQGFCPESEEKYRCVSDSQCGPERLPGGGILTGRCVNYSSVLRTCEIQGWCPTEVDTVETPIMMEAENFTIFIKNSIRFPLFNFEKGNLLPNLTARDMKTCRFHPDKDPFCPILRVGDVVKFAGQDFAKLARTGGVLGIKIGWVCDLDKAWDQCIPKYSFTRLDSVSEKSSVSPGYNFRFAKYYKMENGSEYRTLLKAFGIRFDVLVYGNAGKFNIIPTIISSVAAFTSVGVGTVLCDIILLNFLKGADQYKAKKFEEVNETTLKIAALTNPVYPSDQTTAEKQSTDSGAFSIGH
Test: Intracellular Calcium Measurement to Assess Antagonist Affinity (FLIPR, Fluo-4, agonist α,β-meATP)
Type: cell-based
Details: Intracellular Calcium Measurement to Assess Antagonist Affinity assay; [α,β-meATP]final=EC50
Excerpt: Generation of a Human P2X3 and P2X2/3 Stable Cell Line—Human P2X3 receptor cDNA (Accession number NM_002559) was subcloned as a 5′XhoI and 3′HindIII fragment into the expression vector pcDNA5/FRT (Invitrogen). Human P2X2 receptor cDNA (Accession number NM_174873) was subcloned as a 5′EcoRI and 3′NotI fragment into the expression vector pIRESneo2 (BD Biosciences Clontech). The human P2X3 expression construct was transfected using Lipofectamine 2000 (Invitrogen) into Flp-in—293 cells (Invitrogen) according to the manufacturer's directions. Cells positive for flp-mediated recombination of […] P2X3 were selected using 150 μg/ml hygromycin. The stable human P2X3 cell line was co-transfected with the human P2X2 expression construct using Lipofectamine 2000 as above and co-transfected cells selected using […] hygromycin and 1 mg/ml G418. The stable P2X3 cell line was propagated in DMEM, 10% FBS, 100 μg/ml hygromycin, and 100 units/ml penicillin and 100 μg/ml streptomycin, and maintained at 37° and 95% humidity. The stable P2X2/3 cell line was propagated as above with the addition of 500 μg/ml G418.
Intracellular Calcium Measurement to Assess Antagonist Affinity—A fluorescent imaging plate reader (FLIPR; Molecular Devices) was used to monitor intracellular calcium levels using the calcium-chelating dye Fluo-4 (Molecular Probes). The excitation and emission wavelengths used to monitor fluorescence were 488 nm and 530 nm, respectively. Cells expressing either human P2X3 or human P2X2/3 were plated at a density of 20,000 cells/well (20 μl/well) in 384-well black-walled plates approximately 20 hours before beginning the assay. On the day of the assay 20 μl of loading buffer (Hank's balanced salt solution, 2.5 mM CaCl2, 20 mM HEPES, 0.1% BSA, 2.5 mM probenecid, TR-40, Fluo-4, and 138 mM NMDG substituted for NaCl) is added and cells dye-loaded for […] in the dark at room temperature. Ten minutes prior to adding agonist, the antagonist was added in a volume of 10 μl and allowed to incubate at room temperature. During this period fluorescence data is collected at 3 sec intervals followed by 10 sec intervals. The agonist, α,β-meATP, is added at a 6× concentration ([α,β-meATP]final=EC50). Following agonist addition fluorescence was measured at 5 sec intervals and analyzed based on the increase in peak relative fluorescence units (RFU) compared to the basal fluorescence. Peak fluorescence was used to determine the inhibitory effect at each concentration of antagonist by the following equation: % Inhibition=100*(1−((RFU(drug)−RFU(control))/(RFU(DMSO only)−RFU(control))))

SMILES | IC50
C[C@@H](NC(=O)c1cc(C2=NO[C@H](c3ccccn3)C2)cc(-c2ccc(Cl)cn2)c1)c1ccc(F)cn1 [3-(5-chloropyridin-2-yl)-N-[(1R)-1-(5-fluoropyridin-2-yl)ethyl]-5-[(5S)-5-pyridin-2-yl-4,5-dihydroisoxazol-3-yl]benzamide] | 110 nM
Cc1ccc(-c2cc(C(=O)N[C@H](C)c3ccc(C(F)(F)F)nc3)cc(C3=NO[C@H](c4ccccn4)C3)c2)nc1 [3-(5-methylpyridin-2-yl)-5-[(5S)-5-pyridin-2-yl-4,5-dihydroisoxazol-3-yl]-N-{(1R)-1-[6-(trifluoromethyl)pyridin-3-yl]ethyl}benzamide] | 10 nM
Cc1ccc(-c2cc(C(=O)N[C@H](C)c3ncc(F)cc3F)cc(C3=NOC4(CCC4)C3)c2)nc1 [N-[(1R)-1-(3,5-difluoropyridin-2-yl)ethyl]-3-(5-methylpyridin-2-yl)-5-(5-oxa-6-azaspiro[3.4]oct-6-en-7-yl)benzamide] | 58 nM
Cc1ccc(-c2cc(C(=O)N[C@H](C)c3ccc(F)cn3)cc(C3=NO[C@H](c4ccccn4)C3)c2)nc1 [N-[(1R)-1-(5-fluoropyridin-2-yl)ethyl]-3-(5-methylpyridin-2-yl)-5-[(5S)-5-pyridin-2-yl-4,5-dihydroisoxazol-3-yl]benzamide] | 20 nM
